Measured values taken from patent US10874670B2, “Substituted fused heteroaromatic compounds as kinase inhibitors and the use thereof” (IMPACT THERAPEUTICS, INC., priority 2017, dated 2020).
pIC50: −log10 of the molar value.

Legend:
[1] = system: human colon cancer cell SW620; experiment: MTT assay, growth of SW620 cells, compounds combined with CPT-11; assay type: cell-based; conditions: Homo sapiens, SW-620, 120 h; combined with CPT-11 (205 nM medium), 5 days, MTT
How it was run: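 SW620 cells in RPMI 1640/10% FBS were exposed to 8-point compound dilutions (top 10 or 1 μM, 1% DMSO final) plus CPT-11 (205 nM in added medium) for 5 days at 37 °C. Viability by MTT (0.5 mg/mL, 4 h) absorbance; IC50 from sigmoidal fit.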

[2] = system: human breast cancer cell MDA-MB-468; experiment: MTT assay, growth of MDA-MB-468 cells; assay type: cell-based; conditions: Homo sapiens, MDA-MB-468, 168 h; 7 days, MTT
How it was run: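 MDA-MB-468 cells in RPMI 1640 with 10% FBS were exposed to 8-point compound dilutions (final DMSO 1%) for 7 days at 37 °C, with drug-containing medium renewed on day 4. Viability was read by MTT (0.5 mg/mL, 4 h) absorbance at 552/630/690 nm. IC50 came from a sigmoidal dose-response fit.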

ATM enzyme (human) = ATM enzyme (human) (Homo sapiens, UniProt Q13315); experiment: ATM kinase assay (HTRF, GST-cMyc-p53 substrate); assay type: biochemical; conditions: for inhibition at 0.01 µM: C 0.01 μm (final concentration of compound); for inhibition at 0.1 µM: C 0.1 μm (final concentration of compound); for inhibition at 1 µM: C 1 μm (final concentration of compound)
How it was run: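 Reaction with GST-cMyc-p53 substrate started with Mg/ATP, run 30 minutes at room temperature, then stopped with EDTA. Phospho-p53 (Ser15) detected by HTRF with Eu-labelled anti-phospho antibody and d2 anti-GST, signal as 10000×(Em665/Em620). Duplicates; IC50 from a curve fit with slope factor.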

[3] = 0.5 h, read-out: Inh (%) of ATM kinase

Chain of ATM enzyme (human) (Q13315 whole entry): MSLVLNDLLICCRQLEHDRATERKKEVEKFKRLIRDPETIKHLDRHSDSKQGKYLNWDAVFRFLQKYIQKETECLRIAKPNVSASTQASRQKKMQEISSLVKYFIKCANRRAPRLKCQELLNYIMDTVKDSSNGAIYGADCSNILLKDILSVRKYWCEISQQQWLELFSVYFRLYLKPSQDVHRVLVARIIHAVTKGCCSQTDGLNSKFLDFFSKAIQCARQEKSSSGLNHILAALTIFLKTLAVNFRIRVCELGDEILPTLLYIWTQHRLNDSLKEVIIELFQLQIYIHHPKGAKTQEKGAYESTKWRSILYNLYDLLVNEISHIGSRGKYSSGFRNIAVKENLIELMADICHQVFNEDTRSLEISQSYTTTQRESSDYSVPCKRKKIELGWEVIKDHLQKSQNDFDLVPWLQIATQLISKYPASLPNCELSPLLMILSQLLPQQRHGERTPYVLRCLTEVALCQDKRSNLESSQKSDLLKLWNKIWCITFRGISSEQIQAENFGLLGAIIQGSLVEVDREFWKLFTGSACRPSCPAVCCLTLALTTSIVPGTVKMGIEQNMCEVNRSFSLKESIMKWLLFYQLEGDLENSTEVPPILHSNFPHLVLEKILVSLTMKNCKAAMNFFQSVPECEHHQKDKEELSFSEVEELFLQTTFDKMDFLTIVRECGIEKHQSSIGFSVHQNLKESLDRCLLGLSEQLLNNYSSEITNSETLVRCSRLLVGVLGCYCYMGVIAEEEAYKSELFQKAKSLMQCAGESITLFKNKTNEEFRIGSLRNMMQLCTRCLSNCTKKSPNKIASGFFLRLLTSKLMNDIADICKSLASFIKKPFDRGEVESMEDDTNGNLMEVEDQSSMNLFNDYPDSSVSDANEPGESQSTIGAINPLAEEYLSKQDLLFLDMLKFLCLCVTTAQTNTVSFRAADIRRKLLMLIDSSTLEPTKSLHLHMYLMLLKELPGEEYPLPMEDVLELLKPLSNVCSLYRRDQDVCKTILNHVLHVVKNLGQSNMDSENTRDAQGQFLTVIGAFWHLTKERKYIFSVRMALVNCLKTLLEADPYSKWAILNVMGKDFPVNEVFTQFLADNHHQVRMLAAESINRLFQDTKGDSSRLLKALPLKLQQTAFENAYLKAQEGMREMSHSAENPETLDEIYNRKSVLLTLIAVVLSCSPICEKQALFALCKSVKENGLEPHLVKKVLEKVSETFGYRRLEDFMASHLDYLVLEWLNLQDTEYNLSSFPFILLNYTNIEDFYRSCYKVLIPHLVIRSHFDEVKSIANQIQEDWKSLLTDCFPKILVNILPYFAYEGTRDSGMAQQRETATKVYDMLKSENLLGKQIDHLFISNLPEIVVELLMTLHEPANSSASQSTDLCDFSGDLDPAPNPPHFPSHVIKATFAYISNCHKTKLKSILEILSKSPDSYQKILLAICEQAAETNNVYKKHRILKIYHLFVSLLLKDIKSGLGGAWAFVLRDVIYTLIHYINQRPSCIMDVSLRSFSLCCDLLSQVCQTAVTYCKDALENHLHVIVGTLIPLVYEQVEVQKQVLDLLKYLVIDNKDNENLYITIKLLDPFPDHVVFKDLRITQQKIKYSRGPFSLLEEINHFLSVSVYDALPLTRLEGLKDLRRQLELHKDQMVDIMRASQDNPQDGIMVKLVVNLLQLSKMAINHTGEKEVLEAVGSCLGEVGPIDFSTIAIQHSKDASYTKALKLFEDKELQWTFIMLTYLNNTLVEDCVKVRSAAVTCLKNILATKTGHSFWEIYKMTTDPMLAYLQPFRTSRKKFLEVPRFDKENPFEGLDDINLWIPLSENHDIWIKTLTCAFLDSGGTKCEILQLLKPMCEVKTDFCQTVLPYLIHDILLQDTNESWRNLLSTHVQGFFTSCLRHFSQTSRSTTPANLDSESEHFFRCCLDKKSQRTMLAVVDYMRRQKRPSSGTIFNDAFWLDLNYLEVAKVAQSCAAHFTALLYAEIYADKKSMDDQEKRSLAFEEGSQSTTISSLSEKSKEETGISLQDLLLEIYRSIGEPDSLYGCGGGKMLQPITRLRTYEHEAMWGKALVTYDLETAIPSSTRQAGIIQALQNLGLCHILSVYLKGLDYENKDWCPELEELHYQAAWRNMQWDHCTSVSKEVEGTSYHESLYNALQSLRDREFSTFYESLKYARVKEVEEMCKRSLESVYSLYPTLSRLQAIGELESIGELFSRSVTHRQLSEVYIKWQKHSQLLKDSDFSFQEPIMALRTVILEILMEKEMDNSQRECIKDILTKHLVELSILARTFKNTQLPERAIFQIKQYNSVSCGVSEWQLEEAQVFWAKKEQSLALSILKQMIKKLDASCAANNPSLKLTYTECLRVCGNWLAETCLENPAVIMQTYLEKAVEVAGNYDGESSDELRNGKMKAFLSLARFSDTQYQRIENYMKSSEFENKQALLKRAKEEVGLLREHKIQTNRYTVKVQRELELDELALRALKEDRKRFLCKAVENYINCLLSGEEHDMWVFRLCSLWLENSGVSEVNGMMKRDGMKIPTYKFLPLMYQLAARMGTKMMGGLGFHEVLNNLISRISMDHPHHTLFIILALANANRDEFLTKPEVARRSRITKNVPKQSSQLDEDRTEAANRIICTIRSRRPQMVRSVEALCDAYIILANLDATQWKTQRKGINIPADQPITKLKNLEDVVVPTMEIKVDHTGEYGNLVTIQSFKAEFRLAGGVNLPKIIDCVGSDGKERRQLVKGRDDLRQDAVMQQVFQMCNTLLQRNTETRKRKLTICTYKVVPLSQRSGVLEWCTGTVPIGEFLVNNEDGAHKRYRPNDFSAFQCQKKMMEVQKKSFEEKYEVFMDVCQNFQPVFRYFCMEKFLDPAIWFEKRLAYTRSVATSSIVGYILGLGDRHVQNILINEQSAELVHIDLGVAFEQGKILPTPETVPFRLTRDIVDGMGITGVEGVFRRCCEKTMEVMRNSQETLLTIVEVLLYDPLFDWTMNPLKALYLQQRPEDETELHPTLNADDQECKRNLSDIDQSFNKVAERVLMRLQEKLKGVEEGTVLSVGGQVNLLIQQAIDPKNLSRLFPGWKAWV

pIC50 [1]	pIC50 [2]	inhibition at 0.01 µM (ATM enzyme (human); [3]) [%]	inhibition at 0.1 µM (ATM enzyme (human); [3]) [%]	inhibition at 1 µM (ATM enzyme (human); [3]) [%]	pIC50 (ATM enzyme (human); 10-concentration dilution series, read-out: IC50, inhibition of ATM kinase)	inhibition at 10 µM (ATM enzyme (human); 0.5 h, C 10 μm (final concentration of compound), read-out: Inh (%) of ATM kinase) [%]	inhibitory effect on ATM kinase (in words) (ATM enzyme (human); ATM kinase (human) assay)	inhibition at 0.001 µM (ATM enzyme (human); 0.5 h, C 0.001 μm (final concentration of compound), read-out: Inh (%) of ATM kinase) [%]	Compound
6.82	6.74	67	94	100	–	–	–	–	CN(C)C1CCN(c2ccc(-c3ccc4ncc5nnc(C6CCOCC6)n5c4c3)cc2F)CC1 [Example 44, 1-(2-fluoro-4-(1-(tetrahydro-2H-pyran-4-yl)-[1,2,4]triazolo[4,3-a]quinoxalin-8-yl)phenyl)-N,N-dimethylpiperidin-4-amine]
6.48	6.02	–	–	–	8.05	100	good inhibitory effect	–	CN(C)CCCOc1ccc(-c2ccc3ncc4nnc(C5CCOCC5)n4c3c2)cc1 [Example 4, N,N-dimethyl-3-(4-(1-(tetrahydro-2H-pyran-4-yl)-[1,2,4]triazolo[4,3-a]quinoxalin-8-yl)phenoxy)propan-1-amine]
6.80	6.78	–	–	100	–	–	–	–	CCNC1CCN(c2ccc(-c3ccc4ncc5nnc(C6CCOCC6)n5c4n3)cc2)CC1 [Example 75, N-ethyl-1-(4-(9-(tetrahydro-2H-pyran-4-yl)pyrido[3,2-e][1,2,4]triazolo[4,3-a]pyrazin-2-yl)phenyl)piperidin-4-amine]
7.20	6.99	82	97	99	–	–	–	39	CN(C)C1CCN(c2ccc(-c3ccc4ncc5nnc(C6CCOCC6)n5c4n3)cc2)CC1 [Example 72, N,N-dimethyl-1-(4-(9-(tetrahydro-2H-pyran-4-yl)pyrido[3,2-e][1,2,4]triazolo[4,3-a]pyrazin-2-yl)phenyl)piperidin-4-amine]
< 5.00	< 5.00	–	–	98	–	–	–	–	CN(C)C1CCN(c2ccc(-c3ccc4ncc5nnc(N6CCC(N(C)C)CC6)n5c4c3)cc2)CC1 [Example 64, 1-(4-(1-(4-(dimethylamino)piperidin-1-yl)-[1,2,4]triazolo[4,3-a]quinoxalin-8-yl)phenyl)-N,N-dimethylpiperidin-4-amine]
